Reference: US6444640B1, “Compositions of trail and DNA damaging drugs and uses thereof” (Ludwig Institute for Cancer Research, priority 1999, dated 2002)
Where two headings read alike, the source gives them in different places.

Experiments:
[1] = tested on: poly (ADP-ribase) polymerase; test: Western blot for PARP cleavage (activation of effector caspases); type: cell-based, human; conditions: 24 hours after treatment
Protocol: The direct assessment of activation of effector caspases was examined by assaying for cleavage of poly (ADP-ribase) polymerase, or “PARP”, after treatment with combinations of a DNA damaging agent (CDDP or VP16), TRAIL, DR5-Fc or Fc, and the caspase inhibitor, Z-Asp-CH2-DCB. This was determined via Western blotting, where 20 ug of clarified protein lysate was loaded onto SDS gels 24 hours after treatment, electrophoresed, transferred to membranes, and then probed with monoclonal antibodies against PARP. Full length PARP has a molecular weight of about 116 kilodalton and, when cleaved, one fragment is 85 kilodaltons.

U87MG cells [2] = tested on: U87MG cells
Protocol: (§1) Experiments were then carried out to determine if combining TRAIL with the damaging agents would enhance cytotoxicity. The method employed to determine if combining TRAIL with the damaging agents would enhance cytotoxicity was the 3-(4,5-dimethylthiazol-2-yl)-2,5-diphenyl tetrazolum bromide (“MTT”) survival assay, described by Mosmann, et al., J. Immunol. […] Cells (U87MG) were plated, at 1×10^4 cells/well in 96 well microtiter plates overnight.
(§2) The cytotoxic effect of TRAIL, in combination with one of the DNA damaging agents discussed supra, i.e., CDDP, VP16, as BCNU was tested, by either adding TRAIL alone, the drug alone, or TRAIL plus the drug, in a two component combination, with DR5-Fc, referred to supra, or with Fc. The dosages were as provided supra.

[3] = tested on: astrocytes from p53 knockout mice; conditions: in vitro; cited from earlier work
DR5 = test: Northern blot of DR5 expression in human glioma cell lines after drug treatment; type: cell-based; conditions: for basal level expression of ~4.4Kb DR5 transcripts after contact with drug: U87MG, A1207, U178 cells, Northern blot
Protocol: This first set of experiments was designed to determine whether chemotherapeutic agents which are used in treating gliomas could upregulate expression of DR5 in human glioma cell lines. This was apreliminary step to determine if wild type p53, which is found in de novo glioblastomas, could be exploited.
The human glioblastoma cell lines U87MG, A1207, and U178 were used. The first two of these cell lines are homozygous for wild type p53, while U178 cells express a wild type allele, and an allele with a mutation at codon 271. Samples of cells were treated with one of cis-diamminedichloroplatinum (II) (“CDDP” hereafter), ectoposide (“VP16” hereafter), or chloroethyl)-BCNU. The U87MG and U178 cells received either 0, 1, or 4 ug/ml doses of CDDP; 0, 8, or 16 ug/ml doses of VP16, or 0, 100, or 200 μM doses of BCNU. The A1207 cells received 0, 5, or 20 ug/ml of CDDP, 0, 8 or 16 ug/ml of VP16, or 0, 100, or 200 μM doses of BCNU.
The cells were treated with the drug at an indicated dosage for 16 hours, after which they were harvested, and total RNA was extracted, following standard methods. Then, 15 ug samples were size fractionated on a 1% agarose formaldehyde gel, and transferred to a nylon membrane. These samples were then probed with a human DR5 cDNA probe, 583 base pairs long. This had beenz prepared via RT-PCR of total RNA of U87MG cells using:
The hybridization was carried out at 68° C. for 2 hours, followed by washing in 0.5×SSC and 0.1% SDS at 58° C. for 15 minutes. The membranes were then exposed to film at −80° C. with an intensifying screen. In order to confirm that RNA had in fact been loaded, 28SrRNA was stained with methylene blue.

U87MG cells [4] = test: MTT survival assay; conditions: for cell viability, single agent: TRAIL 0.1 ug/ml, CDDP 4 ug/ml, VP16 16 ug/ml, 24 hours
Protocol: as §1, §2

U87MG cells [5] = test: Subcutaneous U87MG tumors in nude mice, Example 7; type: in vivo; conditions: single agent
Protocol: To test this, U87MG cells (2×10^6) were suspended in 0.1 ml PBS, and then injected subcutaneously into the right flank of 4-5 week old female nude mice, of BALB/C background. Tumors were permitted to become established, and then grow for 20 days, reaching an approximate innate volume of 150 mm^3. Then, either CDDP (3 mg/kg), or sterile normal saline was administered intraperitoneally on days 20,21,22,30,31, and 32. Mice also received either fusion protein FLAG-TRAIL (200 ug), or a mock control. The FLAG-TRAIL fusion protein described by Degli-Esposti, et al., J. Exp. Med 186: 1165-1170 (1997), incorporated by reference, was prepared via standard recombinant methods. Mock controls were prepared by carrying out the same protocol used to produce the FLAG-TRAIL, but without a vector which encoded the fusion protein. Cell lysate was used as the control. The FLAG-TRAIL or control was administered via intraveneous and intraperitoneal injections 16 hours and 24 hours following CDDP treatment, i.e., on days 21,22,23, 31,32 and 33. Growth of the tumors was measured at 2 day intervals, in accordance with Huang, et al., J. Biol Chem 272: […] (1997).

U87MG cells [6] = test: Apoptosis of U87MG cells (TUNEL, flow cytometry) with caspase inhibitor; type: cell-based, human
Protocol: In these experiments, the mechanism by which the cell death caused by combination of TRAIL and DNA damaging agents was studied further. U87MG cells were plated overnight, and then treated with either TRAIL alone (0.1 ug/ml), CDDP alone (4 ug/ml) VP16 alone (16 ug/ml) TRAIL and CDDP, at the recited doses, or TRAIL plus VP16, at the recited doses. The cells were treated for 44 hours, collected, fixed in 2% formaldehyde, and permeabilized in 0.05% Tween-20 in bovine serum albumin solution.
The cells were then incubated with TUNEL (terminal deoxynucleotidyl transferase mediated nick end labeling) solution, at 37° C. for 1 hour. Those cells which stained positively with fluorescein were analyzed via flow cytometry. The morphology of the dead cells was typical of apoptosis.
TRAIL is known to induce apoptosis through activation of effector caspases. See, e.g., Wu, et al., Nature Genet 17: 141-143 (1997); Wiley et al., Immunity 3: 673-682 (1995); Pitti, et al., J. Biol Chem 271: 12687-12690 (1996); Pan, et al., Science 277: 815-818 (1997); Sheridan, et al., Science 277: 818-821 (1997); Walczak, et al., EMBO J. 16: 5386-5397 (1997).

DR5-Fc: a soluble fusion protein that competes for TRAIL
effect on PARP cleavage elicited by TRAIL and CDDP or VP16 [1]: inhibited | effect on synergistic cytotoxicity of TRAIL plus DNA damaging agent (U87MG cells [2]): abolished

extracellular domain of DR4 expressed as a fusion protein with Fc: extracellular domain of DR4 expressed as a fusion protein with Fc
effect on synergistic cytotoxicity of TRAIL plus DNA damaging agent (U87MG cells [2]): same elimination of synergistic cytotoxicity

O=NN(CCCl)C(=O)NCCCl [BCNU, 1,3 bis (2-chloroethyl)-1-nitrosourea]
sensitivity of p53 knockout astrocytes compared with wild type astrocytes [3]: more sensitive | basal level expression of ~4.4Kb DR5 transcripts after contact with drug (DR5): lesser effect

N.N.[Cl][Pt][Cl] [CDDP, cis-diamminedichloroplatinum (II)]
PARP cleavage product (85 kilodaltons) [1]: not | cell viability, single agent (U87MG cells [4]): sublethal | basal level expression of ~4.4Kb DR5 transcripts after contact with drug (DR5): increased significantly | time of contact needed for induction of DR5 (DR5; glioblastoma cell lines): 16 h | tumor growth compared with combined drugs (U87MG cells [5]): grew significantly faster

O=C(O)C[C@H](NC(=O)OCc1ccccc1)C(=O)COC(=O)c1c(Cl)cccc1Cl [Z-Asp-CH2-DCB]
effect on PARP cleavage elicited by TRAIL and CDDP or VP16 [1]: inhibited | effect on synergistic cytotoxicity of TRAIL plus DNA damaging agent (U87MG cells [4]; added to TRAIL plus CDDP or VP16): at levels obtained for single drugs | apoptosis on treatment with TRAIL, one of CDDP or VP16, and the caspase inhibitor (U87MG cells [6]): did not induce apoptosis

COc1cc([C@@H]2c3cc4c(cc3[C@@H](O[C@@H]3O[C@@H]5CO[C@@H](C)O[C@H]5[C@H](O)[C@H]3O)[C@H]3COC(=O)[C@H]23)OCO4)cc(OC)c1O [VP16, ectoposide]
PARP cleavage product (85 kilodaltons) [1]: not | cell viability, single agent (U87MG cells [4]): sublethal | basal level expression of ~4.4Kb DR5 transcripts after contact with drug (DR5): increased significantly

B1: TRAIL: tumor necrosis factor related apoptosis inducing ligand; given in vivo as fusion protein FLAG-TRAIL (protein)
chain: TSEETISTVQEKQQNISPLVRERGPQRVAAHITGTRGRSNTLSSPNSKNEKALGRKINSWESSRSGHSFLSNLHLRNGELVIHEKGFYYIYSQTYFRFQEEIKENTKNDKQMVQYIYKYTSYPDPILLMKSARNSCWSKDAEYGLYSIYQGGIFELKENDRIFVSVTNEHLIDMDHEASFFGAFLVG
PARP cleavage product (85 kilodaltons) [1]: not | cell viability, single agent (U87MG cells [4]): no effect on cell viability | reduction of amount of TRAIL necessary for efficacy in combination versus alone (U87MG cells [4]; in combination with DNA damaging agent): about 100 fold | tumor growth compared with combined drugs (U87MG cells [5]): grew significantly faster
